Patent US9067898B1, “Isothiazole derivatives as GPR120 agonists for the treatment of type II diabetes” (Janssen Pharmaceutica NV, priority 2014, dated 2015)

What was measured:
Type in all cases: cell-based
[1] = target: T1, short form of the GPR120 receptor (GPR120S) (Homo sapiens, UniProt Q5NUL3); assay: Human GPR120 DiscoveRx PathHunter Beta-Arrestin assay, Procedure β-arrestin B; conditions: PathHunter CHO-K1 GPR120S β-Arrestin cell line, 5000 cells/well, read-out: hGPR120 β-arrestin B EC50
T1 construct: host or cells: PathHunter CHO-K1 GPR120S β-Arrestin Cell Line
T1 sequence (P32121 whole entry partner, one chain of several): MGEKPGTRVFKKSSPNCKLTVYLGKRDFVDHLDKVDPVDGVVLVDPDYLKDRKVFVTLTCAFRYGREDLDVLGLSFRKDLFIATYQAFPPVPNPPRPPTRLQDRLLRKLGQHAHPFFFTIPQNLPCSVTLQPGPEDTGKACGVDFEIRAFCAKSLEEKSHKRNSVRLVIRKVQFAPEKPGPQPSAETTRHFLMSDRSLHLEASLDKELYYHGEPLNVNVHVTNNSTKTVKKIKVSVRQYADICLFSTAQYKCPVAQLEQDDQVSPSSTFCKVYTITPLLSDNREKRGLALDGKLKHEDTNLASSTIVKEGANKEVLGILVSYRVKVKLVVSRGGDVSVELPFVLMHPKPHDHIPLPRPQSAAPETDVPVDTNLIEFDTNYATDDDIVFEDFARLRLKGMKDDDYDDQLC
Text: The binding of an agonist (medium/long chain fatty acids or small molecule agonists) to the G-protein-coupled receptor GPR120 activates phospholipase C, leading to release of intracellular Ca^+2 through the generation of inositol 1,4,5-trisphosphate (InsP3 or IP3). GPR120 activation can also trigger intracellular signaling via recruitment of Beta-Arrestin. In the present method, agonist-induced activation of the human GPR120 receptor is monitored through the use of PathHunter CHO-K1 GPR120 Beta-Arrestin Cell Line engineered by DiscoveRx, as detailed below. The cell lines are designed to co-express both the ProLink/Enzyme Donor (PK)-tagged GPCR and the Enzyme […] (EA)-tagged Beta-Arrestin fusion proteins. Upon GPR120 receptor stimulation/activation, the EA-tagged Beta-Arrestin portion is translocated to the tagged receptor, where the two enzyme fragments are brought within close proximity. Under these conditions, these fragments can interact and form an active Beta-gal enzyme complex through Enzyme Fragment Complementation (EFC). This active Beta-gal complex can enzymatically hydrolyse the substrate to produce a detectable light signal; therefore, activation as a function of agonist concentration can be expressed as an EC50 value to determine relative compound activities. This in vitro assay therefore serves to assess compound agonist activity of the GPR120. Procedure β-Arrestin A: In Procedure β-arrestin A, the cell used were PathHunter CHO-K1 GPR120 β-Arrestin Cell Line, expressing the long form of human GPR120 (Genbank accession number NM 181745), with 3000 cells per well. Procedure β-Arrestin B: In Procedure 3-arrestin B the cells used were PathHunter CHO-K1 GPR120S β-Arrestin Cell Line, expressing the short form of the GPR120 receptor (Accession #NM_181745), with 5000 cells/well. Assay Procedure:
The selected CHO-K1 GPR120 β-Arrestin cells were cultured in Ham's F12 media supplemented with 10% fetal bovine serum (FBS), 1% Glutamine, lx p/s, 800 μg/mL G418 and 300 μg/mL Hygromycin B (for selection). Cell stocks were maintained and grown in a sub-confluent state using standard cell culture procedures. The day before the experiment, the cells were harvested with non-enzymatic cell dissociation buffer and re-suspended in complete growth media at the desired concentration. A Corning 384-plate was then seeded with the proper number of cells in a volume of 25 μL, per well. The seeded plates were incubated overnight at 37° C.
On the day of the experiment, the Assay Buffer containing (a) HBSS with Ca^++ and Mg^++, (b) 20 mM HEPES, and (c) 0.1% BSA stabilizer (pH 7.4) was prepared. The growth medium was gently removed from the cell plates and 20 μL of Assay Buffer added to each well. The plate was then incubated at 37° C. for 60 min. Test compounds were serially diluted in Assay Buffer to desired concentrations (more particularly to one or more of the following μM concentrations: 25, 12.5, 6.25, 3.125, 1.5625, 0.78125, 0.390625, 0.1953125, 0.09765625, 0.048828125, 0.024414063, 0.012207031). Five μL of compound dilution was then added to each well and the plate incubated at 37° C. for 90 min. The detection reagents were prepared according to the manufacture's instruction. Twelve μL of the detection reagents were added to each well and the plate incubated at room temperature for 60 min.
The plates were read on an EnVision instrument, using Protocol name: Luminescence, Plate type: 384 Costar, Measurement height: 3 mm, Measurement time: 1 s, Aperture: 384 Plate aperture. The % activity relative to the positive control was calculated using the following equation:
The % Activity values were plotted versus the concentration of test compound and fitted to a sigmoidal dose-response curve with a Hill slope=1 (fixed value) using nonlinear regression with GraphPad Prism 5.0 to calculate the EC50 values. […]

Human GPR120 short form = target: T2, Human GPR120 short form (Homo sapiens, UniProt Q5NUL3); assay: Human GPR120 calcium flux assay (FLIPR), Procedure Calcium A; conditions: HEK-293 cells expressing human GPR120 short form, 2500 cells/well; read-out: GPR120 Ca2+ Assay A EC50
T2 construct: expressed in transfected cells
T2 sequence (Q5NUL3 1-361): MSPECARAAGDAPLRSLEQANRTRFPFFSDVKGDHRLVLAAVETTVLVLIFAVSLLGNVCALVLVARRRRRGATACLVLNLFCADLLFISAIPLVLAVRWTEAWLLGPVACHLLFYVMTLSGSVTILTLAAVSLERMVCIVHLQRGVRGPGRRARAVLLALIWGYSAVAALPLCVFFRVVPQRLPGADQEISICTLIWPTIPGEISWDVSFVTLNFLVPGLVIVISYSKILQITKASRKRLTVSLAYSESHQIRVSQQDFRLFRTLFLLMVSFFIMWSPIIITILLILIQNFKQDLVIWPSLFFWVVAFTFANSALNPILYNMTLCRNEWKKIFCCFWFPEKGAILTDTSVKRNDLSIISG
In short: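 HEK293 cells stably expressing the short isoform (NM_001195755.1), 2500/well, starved 1 h, then loaded with Fluo-4 NW plus probenecid (30 min 37 °C, 15 min RT). Compound solutions 0.012–100 μM, 0.2% DMSO final; FLIPR read 300 s after addition. EC50 from Fmax−Fmin fitted to variable-slope sigmoid (Hill <2).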

[2] = target: T3, long form of human GPR120 (Homo sapiens, UniProt Q5NUL3); assay: Human GPR120 DiscoveRx PathHunter Beta-Arrestin assay, Procedure β-arrestin A; conditions: PathHunter CHO-K1 GPR120 β-Arrestin cell line, 3000 cells per well, read-out: hGPR120 β-arrestin A EC50
T3 construct: host or cells: PathHunter CHO-K1 GPR120 β-Arrestin Cell Line
T3 sequence (Q5NUL3 1-377 isoform Q5NUL3-1): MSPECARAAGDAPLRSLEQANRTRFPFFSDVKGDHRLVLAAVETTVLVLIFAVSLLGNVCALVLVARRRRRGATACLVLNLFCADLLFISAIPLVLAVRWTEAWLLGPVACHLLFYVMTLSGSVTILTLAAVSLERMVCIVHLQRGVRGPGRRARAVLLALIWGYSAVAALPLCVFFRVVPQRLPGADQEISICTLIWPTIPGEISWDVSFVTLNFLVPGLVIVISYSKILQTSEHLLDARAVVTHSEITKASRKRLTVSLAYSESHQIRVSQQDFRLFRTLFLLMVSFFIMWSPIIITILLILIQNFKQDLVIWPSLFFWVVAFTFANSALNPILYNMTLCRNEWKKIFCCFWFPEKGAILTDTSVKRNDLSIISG
T3 sequence (P32121 whole entry partner): as the sequence (P32121 whole entry partner, one chain of several) above
In short: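 PathHunter CHO-K1 β-arrestin cells expressed long-form GPR120 (Procedure A, 3000 cells/well) or short-form GPR120 (Procedure B, 5000 cells/well). Compounds were serially diluted from 25 µM and incubated 90 min at 37 °C in HBSS/20 mM HEPES/0.1% BSA, pH 7.4. Luminescence was read after 60 min detection at RT; EC50 comes from % activity versus positive control, Hill slope fixed at 1.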

Row | Molecule | EC50 [1] [nM] | EC50 (Human GPR120 short form) [nM] | EC50 [2] [nM]
1 | 3-(4-((3-(2,4-difluorophenyl)-5-(trifluoromethyl)isothiazol-4-yl)methoxy)-3,5-difluorophenyl)propanoic acid [Cpd 174] | 1510 | 382 | 
2 | 3-(4-((3-(4-ethylphenyl)-5-(trifluoromethyl)isothiazol-4-yl)methoxy)-2,3,5-trifluorophenyl)propan-1-ol [Cpd 238] | 310 | 107 | 
3 | 3-(4-[[3-(4-ethylphenyl)-5-methoxy-1,2-thiazol-4-yl]methoxy]-2,3-dimethylphenyl)propanoic acid [Cpd 228] | 118 | 89 | 
4 | 3-(4-[[5-(4-chlorophenyl)-3-(trifluoromethyl)-1,2-thiazol-4-yl]methoxy]-2-(trifluoromethoxy)phenyl) propanoic acid [Cpd 159] | 819 | 274 | 
5 | 3-(4-[[5-chloro-3-(4-chlorophenyl)thiophen-2-yl]methoxy]-2,3-dimethylphenyl) propanoic acid [Cpd 6] | 1940 | 405 | 
6 | Cc1ccc(-c2nsc(C(F)(F)F)c2COc2ccc(CCC(=O)O)c(C)c2C)c(F)c1 [Cpd 89, 3-(4-[[3-(2-fluoro-4-methylphenyl)-5-(trifluoromethyl)-1,2-thiazol-4-yl]methoxy]-2,3-dimethylphenyl)propanoic acid] | 416 | 67 | 
7 | CC(Cc1cc(F)c(OCc2c(-c3ccc(Cl)c(F)c3)nsc2C(F)(F)F)c(F)c1)C(=O)O (stereo not shown) [Cpd 90, 3-(4-((3-(4-chloro-3-fluorophenyl)-5-(trifluoromethyl)isothiazol-4-yl)methoxy)-3,5-difluorophenyl)-2-methylpropanoic acid] | 154 | 67 | 
8 | Cc1ccc(-c2nsc(C(F)(F)F)c2COc2c(F)cc(CCC(=O)O)cc2F)cc1F [Cpd 91, 3-(3,5-difluoro-4-[[3-(3-fluoro-4-methylphenyl)-5-(trifluoromethyl)-1,2-thiazol-4-yl]methoxy]phenyl)propanoic acid] | 31 | 69 | 
9 | COc1cccc(-c2nsc(C(F)(F)F)c2COc2c(F)cc(CCC(=O)O)cc2F)c1 [Cpd 94, 3-(3,5-difluoro-4-[[3-(3-methoxyphenyl)-5-(trifluoromethyl)-1,2-thiazol-4-yl]methoxy]phenyl)propanoic acid] | 104 | 71 | 
10 | Cc1ccc(-c2snc(C(F)(F)F)c2COc2c(F)cc(CCC(=O)O)cc2F)c(F)c1 [Cpd 95, 3-(3,5-difluoro-4-[[5-(2-fluoro-4-methylphenyl)-3-(trifluoromethyl)-1,2-thiazol-4-yl]methoxy]phenyl)propanoic acid] | 116 | 72 | 
11 | O=C(O)CCc1cc(F)c(OCc2c(-c3ccc(F)c(F)c3)nsc2C(F)(F)F)c(F)c1 [Cpd 129, 3-(4-((3-(3,4-difluorophenyl)-5-(trifluoromethyl)isothiazol-4-yl)methoxy)-3,5-difluorophenyl)propanoic acid] | 116 |  | 
12 | Cc1c(CCC(=O)O)ccc(OCc2c(-c3ccc(C4CC4)cc3)nsc2C(F)(F)F)c1C [Cpd 190, 3-(4-((3-(4-cyclopropylphenyl)-5-(trifluoromethyl)isothiazol-4-yl)methoxy)-2,3-dimethylphenyl)propanoic acid] |  | 314 | 379
13 | O=C(O)/C=C/c1cc(F)c(OCc2c(-c3ccc(Cl)cc3)nsc2C(F)(F)F)c(F)c1 [Cpd 201, (E)-3-(4-((3-(4-chlorophenyl)-5-(trifluoromethyl)isothiazol-4-yl)methoxy)-3,5-difluorophenyl)acrylic acid] |  | 453 | 341
14 | Cc1cc(OCc2c(-c3ncc(Cl)cc3F)nsc2C(F)(F)F)c(F)cc1CCC(=O)O [Cpd 206, 3-(4-((3-(5-chloro-3-fluoropyridin-2-yl)-5-(trifluoromethyl)isothiazol-4-yl)methoxy)-5-fluoro-2-methylphenyl)propanoic acid] |  | 551 | 540
15 | CCc1ccc(-c2snc(Cl)c2COc2ccc(CCCO)c(C)c2C)cc1 [Cpd 209, 3-(4-((3-chloro-5-(4-ethylphenyl)isothiazol-4-yl)methoxy)-2,3-dimethylphenyl)propan-1-ol] |  | 579 | 229
16 | CCc1ccc(-c2nsc(C(F)(F)F)c2COc2c(F)cc(CC(C)CO)cc2F)cc1 (stereo not shown) [Cpd 216, 3-(4-[[3-(4-ethylphenyl)-5-(trifluoromethyl)-1,2-thiazol-4-yl]methoxy]-3,5-difluorophenyl)-2-methylpropan-1-ol] |  | 674 | 466
17 | Cc1c(CCCO)cc(F)c(OCc2c(-c3ccc(Cl)cc3)nsc2C(F)(F)F)c1F [Cpd 223, 3-(4-((3-(4-chlorophenyl)-5-(trifluoromethyl)isothiazol-4-yl)methoxy)-3,5-difluoro-2-methylphenyl)propan-1-ol] |  | 770 | 182
18 | CC(CO)Cc1cc(F)c(OCc2c(-c3ccc(Cl)cc3)nsc2C(F)(F)F)c(F)c1 (stereo not shown) [Cpd 230, 3-(4-[[3-(4-chlorophenyl)-5-(trifluoromethyl)-1,2-thiazol-4-yl]methoxy]-3,5-difluorophenyl)-2-methylpropan-1-ol] |  | 1020 | 474
19 | Cc1c(CCC(=O)O)cc(F)c(OCc2csnc2-c2ccc(Cl)cc2)c1F [Cpd 231, 3-(4-((3-(4-chlorophenyl)isothiazol-4-yl)methoxy)-3,5-difluoro-2-methylphenyl)propanoic acid] |  | 1020 | 961
20 | COc1ccc(-c2nsc(C(F)(F)F)c2COc2c(F)cc(CCC(=O)O)cc2F)cc1F [Cpd 237, 3-(3,5-difluoro-4-[[3-(3-fluoro-4-methoxyphenyl)-5-(trifluoromethyl)-1,2-thiazol-4-yl]methoxy]phenyl)propanoic acid] | 96 |  | 
21 | CCc1ccc(-c2nsc(C(F)(F)F)c2COc2c(F)cc(CCCO)c(F)c2F)cc1 [Cpd 238, 3-(4-((3-(4-ethylphenyl)-5-(trifluoromethyl)isothiazol-4-yl)methoxy)-2,3,5-trifluorophenyl)propan-1-ol] |  | 521 | 90
